Data taken from paper PMC7391767, “Molecular mechanisms underlying menthol binding and activation of TRPM8 ion channel” (Nature Communications, 2020).
“And” between values parts separate entries of the source, which are not always exact repeats. Identical values can stand only once. “Also recorded” adds a separate entry of the source. Like-named read-outs stand apart in the source and are kept apart here. Each block holds one compound with its values, some of them ahead of it.

Key:
TRPM8 = settings: cited from earlier work
TRPV1 = assay: whole-cell patch-clamp recording in response to a voltage ramp; format: cell-based
Text: (b) Representative whole- cell patch- clamp recording of capsaicin activation of TRPV1 in response to a voltage ramp.

wild-type TRPM8 [1] = biological target: T1, wild-type TRPM8 (Mus musculus, UniProt Q8R4D5); assay: whole-cell patch-clamp recording of ligand activation; format: cell-based
T1 construct: expressed in transfected cells; host or cells: HEK293T
T1 sequence (Q8R4D5 whole entry): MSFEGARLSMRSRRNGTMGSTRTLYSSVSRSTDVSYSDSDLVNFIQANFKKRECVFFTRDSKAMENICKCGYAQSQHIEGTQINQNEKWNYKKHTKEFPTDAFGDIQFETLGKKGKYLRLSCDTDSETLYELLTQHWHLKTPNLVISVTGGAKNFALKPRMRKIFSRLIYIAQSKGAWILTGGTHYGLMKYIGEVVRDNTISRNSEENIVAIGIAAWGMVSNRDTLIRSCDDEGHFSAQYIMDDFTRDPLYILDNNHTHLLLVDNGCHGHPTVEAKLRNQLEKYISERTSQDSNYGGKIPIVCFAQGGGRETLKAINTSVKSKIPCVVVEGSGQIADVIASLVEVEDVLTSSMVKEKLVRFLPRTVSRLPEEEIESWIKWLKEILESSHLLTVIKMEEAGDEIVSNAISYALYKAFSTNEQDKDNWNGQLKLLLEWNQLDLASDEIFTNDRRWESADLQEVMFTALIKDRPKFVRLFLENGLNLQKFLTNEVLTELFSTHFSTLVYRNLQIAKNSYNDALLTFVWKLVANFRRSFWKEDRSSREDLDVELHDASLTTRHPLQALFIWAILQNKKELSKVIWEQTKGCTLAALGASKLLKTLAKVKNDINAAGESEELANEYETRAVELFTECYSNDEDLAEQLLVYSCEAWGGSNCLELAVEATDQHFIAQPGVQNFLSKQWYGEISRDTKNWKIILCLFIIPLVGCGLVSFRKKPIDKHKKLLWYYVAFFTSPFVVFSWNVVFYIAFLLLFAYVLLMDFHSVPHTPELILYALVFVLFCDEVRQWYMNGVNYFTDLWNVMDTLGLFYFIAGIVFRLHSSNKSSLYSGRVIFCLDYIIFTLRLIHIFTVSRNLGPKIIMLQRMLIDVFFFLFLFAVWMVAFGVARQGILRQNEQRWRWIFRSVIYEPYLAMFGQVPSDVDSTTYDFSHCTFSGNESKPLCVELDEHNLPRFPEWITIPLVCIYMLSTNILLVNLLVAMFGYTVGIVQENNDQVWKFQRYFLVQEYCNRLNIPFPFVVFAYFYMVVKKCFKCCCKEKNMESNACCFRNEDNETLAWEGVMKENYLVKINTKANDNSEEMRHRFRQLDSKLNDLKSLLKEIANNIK
Procedure: (§1) Murine TRPM8 was used in this study. Point mutations were made by Fast Mutagenesis Kit V2 (SBS Genetech). Primers used to generate point mutations are summarized in Supplementary Table 2.
Cells were transiently transfected with cDNA constructs by Lipofectamine 3000 (Life Technologies) following the manufacturer’s protocol. Patch-clamp recordings were performed 1–2 days after transfection.
(§2) Patch-clamp recordings were performed with a HEKA EPC10 amplifier controlled by PatchMaster software (HEKA). Whole-cell recordings were performed at ±80 mV. Patch pipettes were prepared from borosilicate glass and fire-polished to resistance of ~4 MΩ. For whole-cell recording, serial resistance was compensated by 60%. For single-channel recordings, patch pipettes were fire-polished to a higher resistance of 6-to-10 MΩ and then recorded in the inside-out configuration. To maximize the chance of obtaining a patch with only one channel, single-channel recordings were performed about 8 h after transfection. A solution with 130 mM NaCl, 10 mM glucose, 0.2 mM EDTA, and 3 mM HEPES (pH 7.2) was used in both bath and pipette for either whole-cell or single-channel recordings. Membrane potential was clamped at +80 mV for single-channel recordings. Current was sampled at 10 kHz and filtered at 2.9 kHz. All recordings were performed at room temperature (22 °C) with the maximum variation of 1 °C.
(§3) Ligands such as menthol and its analogs were perfused to membrane patch by a gravity-driven system (RSC-200, Bio-Logic). Bath and ligand solution were delivered through separate tubes to minimize the mixing of solutions. Patch pipette was placed in front of the perfusion tube outlet.
(§4) Data from whole-cell recordings were analyzed in Igor Pro version 6.1 (WaveMatrix). EC50 values were derived from fitting a Hill equation to the concentration–response relationship. […] To distinguish these possibilities, dissociation constant (Kd) for ligand binding was estimated assuming the following gating scheme:1 C0↔KdC1↔LO, where L is the equilibrium constant for the final closed-to-open transition.

TRPM8 Y745F = biological target: T2, TRPM8 Y745F (Mus musculus, UniProt Q8R4D5, Y745F); assay: whole-cell patch-clamp and thermodynamic mutant cycle analysis; format: cell-based
T2 construct: expressed in transfected cells; host or cells: HEK293T
T2 sequence (Q8R4D5 whole entry Y745F): as the sequence (Q8R4D5 whole entry) above, with Y745F counted along it
Procedure: Murine TRPM8 was used in this study. Point mutations were made by Fast Mutagenesis Kit V2 (SBS Genetech). Primers used to generate point mutations are summarized in Supplementary Table 2. All mutations were confirmed by sequencing.
(§5) HEK293T cells purchased from Kunming Cell Bank, Kunming Institute of Zoology, Chinese Academy of Sciences (ATCC, CRL-3216) were cultured in Dulbecco’s modified Eagle’s medium supplemented with 20 mM L-glutamine and 10% fetal bovine serum. Cells were transiently transfected with cDNA constructs by Lipofectamine 3000 (Life Technologies) following the manufacturer’s protocol. Patch-clamp recordings were performed 1–2 days after transfection.
as §2, §3
Data from whole-cell recordings were analyzed in Igor Pro version 6.1 (WaveMatrix). EC50 values were derived from fitting a Hill equation to the concentration–response relationship. Changes in EC50 by point mutation may be caused by either perturbation of ligand bind or channel gating or both. To distinguish these possibilities, dissociation constant (Kd) for ligand binding was estimated assuming the following gating scheme:1 C0↔KdC1↔LO, where L is the equilibrium constant for the final closed-to-open transition.
(§6) To perform thermodynamic cycle analysis, Kd values of four channel-ligand combinations (WT channel, menthol: Kd _1; Mutant channel, menthol: Kd _2; WT channel, menthol analog: Kd _3; Mutant channel, menthol analog: Kd _4) were determined separately. The strength of coupling was determined by the coupling energy (kT multiplied by LnΩ, where k is the Boltzmann constant and T is temperature in Kelvin). LnΩ was calculated by Eq. (2) as[51]2 LnΩ=LnKd_1⋅Kd_4/Kd_2⋅Kd_3.

TRPM8 D802I = biological target: T3, TRPM8 D802I (Mus musculus, UniProt Q8R4D5, D802I); assay: as above; format: cell-based
T3 construct: expressed in transfected cells; host or cells: HEK293T
T3 sequence (Q8R4D5 whole entry D802I): as the sequence (Q8R4D5 whole entry) above, with D802I counted along it
Procedure: as §1, §5, §2, §3, §4, §6

TRPM8 D802L = biological target: T4, TRPM8 D802L (Mus musculus, UniProt Q8R4D5, D802L); assay: as above; format: cell-based
T4 construct: expressed in transfected cells; host or cells: HEK293T
T4 sequence (Q8R4D5 whole entry D802L): as the sequence (Q8R4D5 whole entry) above, with D802L counted along it
Procedure: as §1, §5, §2, §3, §4, §6

TRPM8 D802S = biological target: T5, TRPM8 D802S (Mus musculus, UniProt Q8R4D5, D802S); assay: as above; format: cell-based
T5 construct: expressed in transfected cells; host or cells: HEK293T
T5 sequence (Q8R4D5 whole entry D802S): as the sequence (Q8R4D5 whole entry) above, with D802S counted along it
Procedure: as §1, §5, §2, §3, §4, §6

TRPM8 L797A = biological target: T6, TRPM8 L797A (Mus musculus, UniProt Q8R4D5, L797A); assay: as above; format: cell-based
T6 construct: expressed in transfected cells; host or cells: HEK293T
T6 sequence (Q8R4D5 whole entry L797A): as the sequence (Q8R4D5 whole entry) above, with L797A counted along it
Procedure: as §1, §5, §2, §3, §4, §6

TRPM8 R842K = biological target: T7, TRPM8 R842K (Mus musculus, UniProt Q8R4D5, R842K); assay: as above; format: cell-based
T7 construct: expressed in transfected cells; host or cells: HEK293T
T7 sequence (Q8R4D5 whole entry R842K): as the sequence (Q8R4D5 whole entry) above, with R842K counted along it
Procedure: as §1, §5, §2, §3, §4, §6

TRPM8 W798A = biological target: T8, TRPM8 W798A (Mus musculus, UniProt Q8R4D5, W798A); assay: as above; format: cell-based
T8 construct: expressed in transfected cells; host or cells: HEK293T
T8 sequence (Q8R4D5 whole entry W798A): as the sequence (Q8R4D5 whole entry) above, with W798A counted along it
Procedure: as §1, §5, §2, §3, §4, §6

TRPM8 Y1005F = biological target: T9, TRPM8 Y1005F (Mus musculus, UniProt Q8R4D5, Y1005F); assay: as above; format: cell-based
T9 construct: expressed in transfected cells; host or cells: HEK293T
T9 sequence (Q8R4D5 whole entry Y1005F): as the sequence (Q8R4D5 whole entry) above, with Y1005F counted along it
Procedure: as §1, §5, §2, §3, §4, §6

wild-type TRPM8 [2] = biological target: T1, wild-type TRPM8; assay: open probability from noise analysis of macroscopic current and single-channel recordings; format: cell-based; settings: wild-type TRPM8; near saturating concentration (menthol 500 µM)
Procedure: as §2
From single-channel recordings, the open probability (Po) was calculated after events detection with a hidden Markov approach in the software QuB[49] (http://www.qub.buffalo.edu/). A dead time of 0.32 ms was imposed. As a complementary approach, Po was also estimated from noise analysis[52] of whole-cell recordings. Briefly, the mean current amplitude (I), the squared deviations in current amplitude from the mean value (σ^2), and the single-channel current (i) were measured experimentally from a membrane patch of ion channels. Then the number of ion channels clamped in that patch (N) was determined as3 N=I^2/i⋅I−σ^2.
The maximum current when each of ion channel is at the open state with a Po of 1 is equal to i × N. Then the open probability was calculated as the ratio between the measured macroscopic current and the maximum current calculated by noise analysis. To estimate channel conductance, current amplitude was estimated from all-point histogram of single-channel recordings.

[3] = mutant cycle menthol vs labelled analog

Compound: C[C@H](c1ccc(F)cc1)N(Cc1cccc(C(=O)O)c1)C(=O)c1cnc2ccccc2c1 [PF-05105679]
- effect on cold-related pain (TRPM8): effectively suppress cold-related pain
- temperature sensation (side effect) (TRPM8; patients, clinical trials): side effects of altering temperature sensation; also recorded: altered temperature sensation in patients

Compound: COc1cc(CNC(=O)CCCC/C=C/C(C)C)ccc1O [capsaicin]
- effect of deep hyperpolarization on ligand-activated channel (TRPV1): not antagonized

- L (equilibrium constant between closed and open states upon ligand binding), Ave (wild-type TRPM8 [1]; WT): 0.9574
- L, single recording (wild-type TRPM8 [1]; WT): 1.13 and 1.132 and 0.6097
- Ratio X1 (Kd menthol / Kd labelled analog) (wild-type TRPM8 [1]; WT): 0.62
- concentration–response curve value, ave (wild-type TRPM8 [1]; WT, 100 microM): 0.02705
- concentration–response curve value, single recording (wild-type TRPM8 [1]; WT, 100 microM): 0.02655 and 0.02755
- concentration–response curve value, ave (wild-type TRPM8 [1]; WT, 700 microM): 0.1118
- concentration–response curve value, single recording (wild-type TRPM8 [1]; WT, 700 microM): 0.1118
- concentration–response curve value, ave (wild-type TRPM8 [1]; WT, 800 microM): 0.223
- concentration–response curve value, ave (wild-type TRPM8 [1]; WT, 1000 microM): 0.4153
- concentration–response curve value, single recording (wild-type TRPM8 [1]; WT, 1000 microM): 0.3958 and 0.4096 and 0.4406
- concentration–response curve value, ave (wild-type TRPM8 [1]; WT, 5000 microM): 0.5864
- concentration–response curve value, single recording (wild-type TRPM8 [1]; WT, 5000 microM): 0.584 and 0.6851 and 0.4903
- concentration–response curve value, ave (wild-type TRPM8 [1]; WT, 10000 microM): 0.596
- concentration–response curve value, single recording (wild-type TRPM8 [1]; WT, 10000 microM): 0.562 and 0.63
- Kd (wild-type TRPM8 [1]; WT, read-out: Kd, single recording): 1.4 mM and 2.02 mM and 1.34 mM
- EC50 (wild-type TRPM8 [1]; wild-type TRPM8, Hill equation fit of concentration–response, patch-clamp): 0.813 ± 0.0843 mM
- Ratio X2 (Kd menthol / Kd labelled analog) (TRPM8 Y745F): 1.11
- Omega(X1/X2) (TRPM8 Y745F; menthol vs labelled analog): 0.56
- Coupling Energy (TRPM8 Y745F; [3]): 0.59 kT
- Ratio X2 (Kd menthol / Kd labelled analog) (TRPM8 D802I): 1.35
- Omega(X1/X2) (TRPM8 D802I; menthol vs labelled analog): 0.46
- Coupling Energy (TRPM8 D802I; [3]): 0.78 kT
- Ratio X2 (Kd menthol / Kd labelled analog) (TRPM8 D802L): 3.06
- Omega(X1/X2) (TRPM8 D802L; menthol vs labelled analog): 0.20
- Coupling Energy (TRPM8 D802L; [3]): 1.60 kT
- Ratio X2 (Kd menthol / Kd labelled analog) (TRPM8 D802S): 2.58
- Omega(X1/X2) (TRPM8 D802S; menthol vs labelled analog): 0.24
- Coupling Energy (TRPM8 D802S; [3]): 1.42 kT
- Ratio X2 (Kd menthol / Kd labelled analog) (TRPM8 L797A): 1.22
- Omega(X1/X2) (TRPM8 L797A; menthol vs labelled analog): 0.51
- Coupling Energy (TRPM8 L797A; [3]): 0.67 kT
- L (equilibrium constant between closed and open states upon ligand binding), Ave (TRPM8 R842K): 0.246
- Ratio X2 (Kd menthol / Kd labelled analog) (TRPM8 R842K): 4.90
- concentration–response curve value, ave (TRPM8 R842K; 800 microM): 0.04014
- concentration–response curve value, ave (TRPM8 R842K; 1000 microM): 0.05391
- concentration–response curve value, ave (TRPM8 R842K; 5000 microM): 0.1385
- Kd (TRPM8 R842K; calculated from concentration–response curves, read-out: Kd, Ave): 1.78 mM
- Omega(X1/X2) (TRPM8 R842K; menthol vs labelled analog): 0.13
- Coupling Energy (TRPM8 R842K; [3]): 2.07 kT
- Kd (TRPM8 R842K; read-out: Kd, single recording): 1.12 mM and 2.99 mM and 1.51 mM and 1.5 mM
- Ratio X2 (Kd menthol / Kd labelled analog) (TRPM8 W798A): 0.21
- Omega(X1/X2) (TRPM8 W798A; menthol vs labelled analog): 2.89
- Coupling Energy (TRPM8 W798A; [3]): 1.06 kT
- Ratio X2 (Kd menthol / Kd labelled analog) (TRPM8 Y1005F): 0.15
- Omega(X1/X2) (TRPM8 Y1005F; menthol vs labelled analog): 4.12
- Coupling Energy (TRPM8 Y1005F; [3]): 1.42 kT
- maximum open probability (Po max) (wild-type TRPM8 [2]): 0.48 ± 0.05
Compound: CC(C)[C@@H]1CC[C@@H](C)CC1=O [menthone, (−)-menthone]
- concentration–response curve value, single recording (TRPM8 R842K; 800 microM): 0.05631 and 0.03329 and 0.03847 and 0.03248
- concentration–response curve value, single recording (TRPM8 R842K; 1000 microM): 0.07259 and 0.05411 and 0.04679 and 0.04215
